Experiment [1] addresses T1, RIPK1 kinase domain (Homo sapiens, UniProt Q13546).
T1 construct: purchased DiscoverX
T1 sequence (Q13546 17-289 limits assumed): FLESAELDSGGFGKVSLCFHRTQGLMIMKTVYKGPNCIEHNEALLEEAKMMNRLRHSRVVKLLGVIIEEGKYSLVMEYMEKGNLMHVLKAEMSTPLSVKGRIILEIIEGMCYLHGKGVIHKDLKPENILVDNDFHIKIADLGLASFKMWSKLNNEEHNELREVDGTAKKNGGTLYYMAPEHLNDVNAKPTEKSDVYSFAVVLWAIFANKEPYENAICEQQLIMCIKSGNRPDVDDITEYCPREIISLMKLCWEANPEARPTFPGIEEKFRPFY
Put plainly: ATP-competitive probe displacement assay, RIPK1. Particulars: average of duplicates. It counts as binding. Here is the method: (§1) Compound binding constants (KDs) were determined at DiscoverX using their KINOMEscan assay platform. This competition binding assay was previously described in Karaman et al. (2008)[18]. Briefly, full length MLKL was expressed in HEK-293 cells as a fusion with an NFκB DNA binding domain and subsequently tagged with a qPCR detection amplicon via interaction with NFκB. […] Twenty microliters of binding reactions were carried out in 384-well polypropylene plates for 1 hour at room temperature. Beads were subsequently washed and resuspended in elution buffer for 30 minutes at room temperature with shaking. The concentration of MLKL in the eluates was measured by qPCR and compound binding constants were calculated using a standard dose-response curve.
(§2) A similar approach was used to measure binding affinities for RIPK1 and RIPK3 kinase domains.

The target of experiment [2] is T2, RIPK3 kinase domain (Homo sapiens, UniProt Q9Y572).
T2 construct: purchased DiscoverX
Briefly: ATP-competitive probe displacement assay, RIPK3. It counts as binding. To be noted: average of duplicates. Here is the method:
as §1, §2

For experiment [3], the target named is T3, pseudokinase His-MLKL-1 (Homo sapiens, UniProt Q8NB16).
T3 construct: sub-cloning residues 191 to 471 of the pseudokinase domain of human MLKL cDNA; made in house; host or cells: Escherichia coli BL21 (DE3)
T3 sequence (Q8NB16 191-471): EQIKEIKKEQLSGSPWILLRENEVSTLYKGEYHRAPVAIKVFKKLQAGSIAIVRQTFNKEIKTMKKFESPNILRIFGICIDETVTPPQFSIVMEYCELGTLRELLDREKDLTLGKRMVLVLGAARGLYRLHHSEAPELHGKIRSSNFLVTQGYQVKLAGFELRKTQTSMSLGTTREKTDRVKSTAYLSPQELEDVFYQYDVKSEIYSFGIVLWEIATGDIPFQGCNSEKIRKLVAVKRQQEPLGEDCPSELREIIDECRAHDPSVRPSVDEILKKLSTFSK
Briefly: Second harmonic generation (SHG) conformational assay, MLKL pseudokinase domain. Particulars: 10 μM compound; MLKL construct not given. An excerpt:
MLKL-1 was constructed by sub-cloning residues 191 to 471 of the pseudokinase domain of human MLKL cDNA into a pET15b vector with a thrombin cleavable N-terminal six histidine fusion tag (His-MLKL-1). MLKL-2 had the same protein boundaries and fusion tag system as MLKL-1 but the dual mutations E366A and K367A were introduced using site directed mutagenesis and was expressed in the same vector (His-MLKL-2). These residues were identified as having high surface entropy and were mutated to alanine to improve crystal packing.
The labeling reaction was performed according to manufacturer’s instructions. […]
Experiments were performed on a Biodesy Delta System. […] The fundamental is directed to an arrangement of prisms integrated with the custom, glass-bottomed Biodesy Delta Read Plates, where it undergoes total internal reflection (TIR) to generate the evanescent field at the glass-lipid bilayer interface. […] The fundamental light is filtered out leaving only the SH light which is detected by a photomultiplier tube and processed with custom electronics. […] Ligand injection into the read plate is accomplished with an on-board 8-channel MEMS-based electronic pipetting system, enabling high speed and accuracy. […]
In addition, all experiments included a control buffer injection that was used to determine the significant threshold for SHG intensity change and was calculated in a similar manner. […]

Experiment [4] deals with T4, full length MLKL (Homo sapiens, UniProt Q8NB16).
T4 construct: purchased DiscoverX (KINOMEscan service); host or cells: HEK-293
T4 sequence (Q8NB16 1-471): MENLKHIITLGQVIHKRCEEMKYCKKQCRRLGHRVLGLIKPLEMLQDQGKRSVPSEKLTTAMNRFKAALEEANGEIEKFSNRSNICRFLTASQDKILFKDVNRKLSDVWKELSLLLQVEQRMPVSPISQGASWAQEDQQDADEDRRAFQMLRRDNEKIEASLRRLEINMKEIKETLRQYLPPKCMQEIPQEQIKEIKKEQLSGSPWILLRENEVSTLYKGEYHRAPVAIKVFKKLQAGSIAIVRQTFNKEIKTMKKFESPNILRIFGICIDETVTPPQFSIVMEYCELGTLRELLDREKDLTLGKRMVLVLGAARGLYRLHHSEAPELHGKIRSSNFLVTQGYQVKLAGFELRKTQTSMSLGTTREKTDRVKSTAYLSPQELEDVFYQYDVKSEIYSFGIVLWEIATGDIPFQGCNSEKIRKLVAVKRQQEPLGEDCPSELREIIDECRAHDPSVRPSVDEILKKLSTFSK
Put plainly: KINOMEscan ATP-competitive probe displacement (competition binding) assay, MLKL. To be noted: average of duplicates. Here is the method:
as §1, with “This competition binding assay was previously described in Karaman et al. (2008)[18].” left out
as §2

Usually Kd stands for the concentration at which binding is half-saturated. The low end stands for tighter binding, the high end for weaker binding.

T2 sequence (Q9Y572 21-287 limits assumed): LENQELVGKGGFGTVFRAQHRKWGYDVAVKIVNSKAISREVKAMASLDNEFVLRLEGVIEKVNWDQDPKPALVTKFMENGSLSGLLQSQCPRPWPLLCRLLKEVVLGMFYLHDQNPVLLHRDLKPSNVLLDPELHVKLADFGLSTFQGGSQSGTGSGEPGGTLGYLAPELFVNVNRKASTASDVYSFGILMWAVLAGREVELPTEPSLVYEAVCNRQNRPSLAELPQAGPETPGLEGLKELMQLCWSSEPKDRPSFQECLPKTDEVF

With `Nc1nccnc1C(=O)O[C@H](C(=O)Nc1ccc(F)cc1)c1ccccc1` [cpd 5], the values for the Kd in experiment [1], in experiment [2] and in experiment [4] were over 30 µM, over 30 µM and 7.6 µM, respectively. For the same molecule, in experiment [3], the “change in SHG intensity (in words)” value is reported as “no change from baseline”.

The record behind these values is article PMC5104457, “ATP-Competitive MLKL Binders Have No Functional Impact on Necroptosis” (PLoS ONE, 2016).
